# Experimental data reported in patent US20090054414A1, “Rufinamide for the Treatment of Post-Traumatic Stress Disorder” (SYNOSIA THERAPEUTICS, priority 2007, published 2009).
# Assays:
# [1] = tested on: “intruder” rat; assay: social exploration test in rats; type: in vivo; conditions: vs vehicle
# From the text: There remains a paucity of data investigating the anxiolytic potential of this rufinamide. Therefore the aim of the present study was to test the effect of rufinamide (FIG. 1, chemical structure of rufinamide) with regard to a possible facilitation of social behavior (anxiolytic-like effect) using the social exploration test in rats as a paradigm. The basis of this test is that when an adult “resident” rat is kept in social isolation for two weeks, its natural tendency to establish territorial defensive reactions is increased. […] Male adult Sprague Dawley rats (Ra238, OFA/IC strain, Iffa Credo, France) (“residents”) weighing 350-400 g and young Lister Hooded rats (li/ho, Harlan, The Netherlands) (“intruders”) weighing 100-120 g were used. “Intruders” were housed in pairs and the “residents” were individually housed for two weeks before the test in plastic cages (Macrolon, 42×26×15 cm). All animals lived in a room lit from 6 a.m. until 6 p.m. and had always free access to standard food and water. […]
# Pairs consisting of one “intruder” rat and one “resident” rat were assigned at random to one of the experimental or the control groups. […] The duration of active approach behaviors of the “intruder” rat (sniffing, anogenital exploration, nosing, grooming, licking, playing) towards the “resident” was manually registered and cumulatively recorded over a period of 5 minutes. […]
# [2] = tested on: Male Rj: Wistar (Han) rats; assay: Vogel Conflict Test in the rat; type: in vivo; conditions: for number of shocks received (punished drinking), change vs vehicle control: 60 minutes before the test
# Experimental: Rufinamide was dispersed in 0.5% methylcellulose (MC) in distilled water. Vehicle was dispersed in 0.5% MC in distilled water. Clobazam was dispersed in 0.5% MC in distilled water. Methylcellulose (Sigma), batch n° 62K0144, white powder. Distilled water (Laboratoire Aguettant, sterile water for injectable preparation). All substances were stored in a dry, dark, controlled access area and maintained at a controlled ambient temperature (+18° C.). The vehicle suspensions were stored at +4° C.
# The vehicle, test substance and reference substance were administered in a volume of 5 ml/kg body weight.
# Male Rj: Wistar (Han) rats, 171-205 g body weight range were used. They were supplied by Elevage Janvier, 53940 Le Genest-Saint-Isle, France.
# Animals were delivered to the laboratory at least 5 days before the experiment, during which time they were acclimatized to the laboratory conditions. They were housed in groups of 5 in macrolon cages (41×25×14 cm) on wood litter (Litalabo—SPPS, 95100 Argenteuil, France) with free access to food (Code 113-SAFE, 91360 Epinay-sur-Orge, France) and water until
# Results in grouped data tables are presented as means followed by a ± sign and the standard error of the mean (s.e.m.) on the basis of 15 animals per group and as percent change from control. The statistical tests used are indicated with the method. All statistical calculations were performed using commercial software (Microsoft Excel®, GB Stat version 6.5), and verified test by test according to Porsolt & Partners Pharmacology's standardized internal procedures. All differences were considered statistically significant when the null hypothesis could be rejected at the risk α=0.05 or less.
# Rats were deprived of water for 48 hours and were then placed individually into a transparent Plexiglas enclosure (15×32×34 cm) with a floor consisting of stainless steel bars (0.4 cm) spaced 1 cm apart. The back wall of the enclosure was made of opaque Plexiglass thereby concealing the observer from the experimental animal. In the centre of the opposite wall, 5 cm above the floor, a metal water spout protruded into the cage and was connected to one pole of a shock generator (Apelex: Type 011346). The other pole of the shock generator was connected to the metal grid floor.
# The rat was left to explore until it found the water spout. Then, every time it drank, it received a slight electric shock (1.7 mA, 1 sec.) 2 seconds after it started lapping. The number of shocks received (punished drinkings) was counted during a 3 minute period.
# 15 rats were studied per group. The test was performed blind.
# rufinamide was evaluated at 25, 50, 100 and 200 mg/kg, administered p.o. 60 minutes before the test, and compared with a vehicle control group.
# Clobazam (64 mg/kg), administered under the same experimental conditions, was used as reference substance.
# Data were analyzed by comparing treated groups with vehicle control using unpaired Student's t tests.
compound,measurement,setting,value
"NC(=O)c1cn(Cc2c(F)cccc2F)nn1 [rufinamide, 1-(2,6-difluorobenzyl)-1H-1,2,3-triazole-4-carboxamide]",time spent in social contact,"[1]; rufinamide 0.3 mg/kg p.o., 1 hour after application",did not induce any significant change
same,duration of social contacts of an intruder toward a resident rat,"[1]; rufinamide 1, 3, 10, 30 and 100 mg/kg p.o., tested 1 hour after application, 5 min observation",significantly increased
same,"number of shocks received (punished drinking), change vs vehicle control","[2]; 25 mg/kg p.o., 3 minute period, 15 rats",+31%
same,"number of shocks received (punished drinking), change vs vehicle control","[2]; 50 mg/kg p.o., p<0.05",+40%
same,"number of shocks received (punished drinking), change vs vehicle control",[2]; 100 mg/kg p.o.,+55%
same,"number of shocks received (punished drinking), change vs vehicle control",[2]; 200 mg/kg p.o.,+83%
same,dose-range of anxiolytic-like activity,[2]; p.o.,25 to 200 mg/kg
same,dose from which the increase in shocks received is significant,"[2]; p.o., p<0.05",≥ 50 mg/kg
